The record followed here is patent US4746658A, “2-phenyl-imidazo-pyrazines, -pyridazines and -triazines” (Dr. Karl Thomae GmbH, priority 1983, dated 1988).

The test system of the assay is anesthetized cat. In words: Determination of the effect on blood pressure and of the positive inotropic effect in the anesthetized cat. The assay is classed as in vivo. Conditions: injected into vena femoralis, average, at least 3 cats; for Effect on blood pressure in mm Hg (first figure of pair) / Effect on blood pressure in mm Hg (second figure of pair): arterial pressure in aorta abdominalis. How it is done: The above pharmacological properties were ascertained for the compounds of the present invention by the standard pharmacological test method described below, and the results of this test for two representative species of the genus are shown in the table below, where
Determination of the effect on blood pressure and of the positive inotropic effect in the anesthetized cat
The tests were carried out on cats which had been anesthetized with sodium pentobarbital (40 mg/kg i.p.). The animals breathed spontaneously. The arterial blood pressure was measured in the aorta abdominalis with a Statham pressure transducer (P 23 Dc). In order to determine the positive inotropic activity, the pressure in the left ventricle was measured with a catheter-tip manometer (Millar PC-350 A). From this the contractility parameter dp/dt was obtained, using an analog differentiator. The test compounds were injected into a vena femoralis. Polydiol 200 was used as the solvent. Each compound was tested on at least 3 cats.

Consider `COc1cc(OS(C)(=O)=O)ccc1-c1nc2nccnc2[nH]1` [A, 2-(2-methoxy-4-methanesulfonyloxy-phenyl)-imidazo[4,5-b]pyrazine], for which, where the note is “0.6 mg/kg”, the “Effect on blood pressure in mm Hg (first figure of pair)” value was -24 mm Hg, the “Effect on blood pressure in mm Hg (second figure of pair)” value was -21 mm Hg, the “Duration of activity (half life)” value came to 20 min and the “Increase in dp/dtmax in %” value is 54%.

Take `COc1cc(OS(C)(=O)=O)ccc1-c1nc2cnncc2[nH]1` [B, 2-(2-Methoxy-4-methanesulfonyloxy-phenyl)-imidazo[4,5-d]pyridazine]: under “0.3 mg/kg”, the “Effect on blood pressure in mm Hg (first figure of pair)” value is -31 mm Hg, the “Effect on blood pressure in mm Hg (second figure of pair)” value was -18 mm Hg, the “Duration of activity (half life)” value was 38 min and the “Increase in dp/dtmax in %” value stood at 36%.
